Data: PubChem BioAssay (NCI)
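Following 48 hours of exposure in 96-well plates, responses at five concentrations were used to interpolate endpoints linearly. At the GI50, growth is halved. The concentration for full growth arrest is given as TGI.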

Assays:
Assay in all cases: growth of human tumour cells (NCI), 48 h
786-0 renal = test system: 786-0 renal
A498 renal = test system: A498 renal
A549 NSCLC = test system: A549 NSCLC
ACHN renal = test system: ACHN renal
BT-549 breast = test system: BT-549 breast
CAKI-1 renal = test system: CAKI-1 renal
CCRF-CEM leukemia = test system: CCRF-CEM leukemia
COLO 205 colon = test system: COLO 205 colon
DU-145 prostate = test system: DU-145 prostate
EKVX NSCLC = test system: EKVX NSCLC
HCC-2998 colon = test system: HCC-2998 colon
HCT-116 colon = test system: HCT-116 colon
HCT-15 colon = test system: HCT-15 colon
HL-60(TB) leukemia = test system: HL-60(TB) leukemia
HOP-62 NSCLC = test system: HOP-62 NSCLC
HOP-92 NSCLC = test system: HOP-92 NSCLC
HS 578T breast = test system: HS 578T breast
HT29 colon = test system: HT29 colon
IGROV1 ovarian = test system: IGROV1 ovarian
K-562 leukemia = test system: K-562 leukemia
LOX IMVI melanoma = test system: LOX IMVI melanoma
M14 melanoma = test system: M14 melanoma
MALME-3M melanoma = test system: MALME-3M melanoma
MCF7 breast = test system: MCF7 breast
MDA-MB-231 breast = test system: MDA-MB-231 breast
MDA-MB-435 = test system: MDA-MB-435
MOLT-4 leukemia = test system: MOLT-4 leukemia
NCI-H226 lung = test system: NCI-H226 lung
NCI-H23 lung = test system: NCI-H23 lung
NCI-H460 lung = test system: NCI-H460 lung
NCI-H522 lung = test system: NCI-H522 lung
NCI/ADR-RES ovarian = test system: NCI/ADR-RES ovarian
OVCAR-3 ovarian = test system: OVCAR-3 ovarian
OVCAR-4 ovarian = test system: OVCAR-4 ovarian
OVCAR-5 ovarian = test system: OVCAR-5 ovarian
OVCAR-8 ovarian = test system: OVCAR-8 ovarian
PC-3 prostate = test system: PC-3 prostate
RPMI-8226 leukemia = test system: RPMI-8226 leukemia
RXF 393 renal = test system: RXF 393 renal
SF-268 CNS = test system: SF-268 CNS
SF-295 CNS = test system: SF-295 CNS
SF-539 CNS = test system: SF-539 CNS
SK-MEL-2 melanoma = test system: SK-MEL-2 melanoma
SK-MEL-28 melanoma = test system: SK-MEL-28 melanoma
SK-MEL-5 melanoma = test system: SK-MEL-5 melanoma
SK-OV-3 ovarian = test system: SK-OV-3 ovarian
SN12C renal = test system: SN12C renal
SNB-19 CNS = test system: SNB-19 CNS
SNB-75 CNS = test system: SNB-75 CNS
SR leukemia = test system: SR leukemia
T-47D breast = test system: T-47D breast
TK-10 renal = test system: TK-10 renal
U251 CNS = test system: U251 CNS
UACC-257 melanoma = test system: UACC-257 melanoma
UACC-62 melanoma = test system: UACC-62 melanoma
UO-31 renal = test system: UO-31 renal

COc1ccc(/C=C2\COc3ccc(O)c(O)c3C2=O)cc1OC
GI50 (786-0 renal): 1510 nM | TGI (786-0 renal): 3870 nM | GI50 (A498 renal): 2470 nM | TGI (A498 renal): 8280 nM | GI50 (A549 NSCLC): 2600 nM | TGI (A549 NSCLC): > 100000 nM | GI50 (ACHN renal): 1320 nM | TGI (ACHN renal): 2750 nM | GI50 (BT-549 breast): 1320 nM | TGI (BT-549 breast): 3250 nM | GI50 (CAKI-1 renal): 1220 nM | TGI (CAKI-1 renal): 2980 nM | GI50 (CCRF-CEM leukemia): 377 nM | TGI (CCRF-CEM leukemia): 12100 nM | GI50 (COLO 205 colon): 2170 nM | TGI (COLO 205 colon): 6180 nM | GI50 (DU-145 prostate): 2220 nM | TGI (DU-145 prostate): 11400 nM | GI50 (EKVX NSCLC): 2760 nM | TGI (EKVX NSCLC): 18800 nM | GI50 (HCC-2998 colon): 1760 nM | TGI (HCC-2998 colon): 3310 nM | GI50 (HCT-116 colon): 1470 nM | TGI (HCT-116 colon): 3610 nM | GI50 (HCT-15 colon): 488 nM | TGI (HCT-15 colon): 5730 nM | GI50 (HL-60(TB) leukemia): 440 nM | TGI (HL-60(TB) leukemia): 5290 nM | GI50 (HOP-62 NSCLC): 5980 nM | TGI (HOP-62 NSCLC): 39300 nM | GI50 (HOP-92 NSCLC): 2180 nM | TGI (HOP-92 NSCLC): 5910 nM | GI50 (HS 578T breast): 2230 nM | TGI (HS 578T breast): 8290 nM | GI50 (HT29 colon): 2120 nM | TGI (HT29 colon): 5200 nM | GI50 (IGROV1 ovarian): 840 nM | TGI (IGROV1 ovarian): 3530 nM | GI50 (K-562 leukemia): 467 nM | TGI (K-562 leukemia): > 100000 nM | GI50 (LOX IMVI melanoma): 1120 nM | TGI (LOX IMVI melanoma): 2540 nM | GI50 (M14 melanoma): 1430 nM | TGI (M14 melanoma): 3310 nM | GI50 (MALME-3M melanoma): 1330 nM | TGI (MALME-3M melanoma): 3200 nM | GI50 (MCF7 breast): 682 nM | TGI (MCF7 breast): > 100000 nM | GI50 (MDA-MB-231 breast): 1480 nM | TGI (MDA-MB-231 breast): 5550 nM | GI50 (MDA-MB-435): 1320 nM | TGI (MDA-MB-435): 3780 nM | GI50 (MOLT-4 leukemia): 1050 nM | TGI (MOLT-4 leukemia): 9130 nM | GI50 (NCI-H226 lung): 3910 nM | TGI (NCI-H226 lung): 48100 nM | GI50 (NCI-H23 lung): 1890 nM | TGI (NCI-H23 lung): 5560 nM | GI50 (NCI-H460 lung): 1830 nM | TGI (NCI-H460 lung): 5020 nM | GI50 (NCI-H522 lung): 199 nM | TGI (NCI-H522 lung): 473 nM | GI50 (NCI/ADR-RES ovarian): 1700 nM | TGI (NCI/ADR-RES ovarian): 17400 nM | GI50 (OVCAR-3 ovarian): 539 nM | TGI (OVCAR-3 ovarian): 3310 nM | GI50 (OVCAR-4 ovarian): 1610 nM | TGI (OVCAR-4 ovarian): 13300 nM | GI50 (OVCAR-5 ovarian): 1730 nM | TGI (OVCAR-5 ovarian): 3800 nM | GI50 (OVCAR-8 ovarian): 1680 nM | TGI (OVCAR-8 ovarian): 15700 nM | GI50 (PC-3 prostate): 1530 nM | TGI (PC-3 prostate): 6820 nM | GI50 (RPMI-8226 leukemia): 336 nM | TGI (RPMI-8226 leukemia): 1510 nM | GI50 (RXF 393 renal): 1440 nM | TGI (RXF 393 renal): 2910 nM | GI50 (SF-268 CNS): 1700 nM | TGI (SF-268 CNS): 5640 nM | GI50 (SF-295 CNS): 2700 nM | TGI (SF-295 CNS): 7180 nM | GI50 (SF-539 CNS): 1570 nM | TGI (SF-539 CNS): 3030 nM | GI50 (SK-MEL-2 melanoma): 2020 nM | TGI (SK-MEL-2 melanoma): 5280 nM | GI50 (SK-MEL-28 melanoma): 1800 nM | TGI (SK-MEL-28 melanoma): 3690 nM | GI50 (SK-MEL-5 melanoma): 1790 nM | TGI (SK-MEL-5 melanoma): 3400 nM | GI50 (SK-OV-3 ovarian): 3830 nM | TGI (SK-OV-3 ovarian): > 100000 nM | GI50 (SN12C renal): 1390 nM | TGI (SN12C renal): 5160 nM | GI50 (SNB-19 CNS): 2060 nM | TGI (SNB-19 CNS): 7430 nM | GI50 (SNB-75 CNS): 1980 nM | TGI (SNB-75 CNS): 29100 nM | GI50 (SR leukemia): 537 nM | TGI (SR leukemia): 10700 nM | GI50 (T-47D breast): 1540 nM | TGI (T-47D breast): 9600 nM | GI50 (TK-10 renal): 2660 nM | TGI (TK-10 renal): 27600 nM | GI50 (U251 CNS): 991 nM | TGI (U251 CNS): 7200 nM | GI50 (UACC-257 melanoma): 1750 nM | TGI (UACC-257 melanoma): 4930 nM | GI50 (UACC-62 melanoma): 1190 nM | TGI (UACC-62 melanoma): 2860 nM | GI50 (UO-31 renal): 789 nM | TGI (UO-31 renal): 2190 nM
